In patent US12029800B2, “Composite particles including anionic polymer and cationic polymer or peptide, and method for producing composite particles” (POLA CHEMICAL INDUSTRIES, INC., priority 2016, dated 2024):

Experiment: Test Example 3: particle diameter of composite particles after adding PBS (imitating the inside of the living body)
Assay type: physicochemical
Settings: PBS 100% (the same environment as the inside of the skin), FIG. 1
Method: An aqueous solution including a composite particle of sodium hyaluronate and a cationic polymer that was each of a primary amine and a quaternary ammonium was prepared in a similar manner as in Test Example 1.
By adding a PBS buffer solution constituted of the ions that are universally found in the living body into an aqueous solution of the prepared composite particles, it was investigated how the composite particles under the environment imitating the inside environment of the living body behaved.
Specifically, PBS was added into an aqueous solution of the prepared composite particles, and the particle diameter of a composite particle in the aqueous solution was measured in a similar manner as in Test Example 2.

Substance	Particle diameter of the composite particle with sodium hyaluronate at addition amount of PBS 100%
Polylysine	particle diameter was not able to be almost measured
Protamine	particle diameter was not able to be almost measured
